Laboratory results: ChEMBL document CHEMBL3885861, “Open TG-GATES”

Species on record: Rattus norvegicus
Assay: Open TG-GATES - Regimen: Single
Type: toxicity, organism-based, Sprague-Dawley
Parameters: regimen Single, gender Male, age 6 weeks
Conditions: in vivo, iv, 60 mg/kg, route intravenous injection, dose level High; for APTT / Bas / Eos / Fbg / Hb / Ht / Lym / MCH / MCHC / MCV / Mono / Neu / PT / Plat / RBC / Ret / WBC: tissue Blood; for KIDNEY_L / KIDNEY_R / KIDNEY_TOTAL: tissue Kidney; for LIVER: tissue Liver; for A/G / ALP / ALT / AST / BUN / CRE / Ca / Cl / DBIL / GLC / IP / K / LDH / Na / PL / RALB / TBIL / TC / TG / TP / gamma-GTP: tissue Plasma

Structure (SMILES): NCCBr [BROMOETHANAMINE]
- TERMINAL_BW (3 h): 212.4 g
- APTT (3 h): 23.5 s
- Bas (3 h): 0%
- Eos (3 h): 0.6%
- Fbg (3 h): 312.8 mg/dL
- Hb (3 h): 14.4 g/dL
- Ht (3 h): 41.9%
- Lym (3 h): 70.8%
- MCH (3 h): 21.8 pg
- MCHC (3 h): 34.5%
- MCV (3 h): 63.3 fL
- Mono (3 h): 2.4%
- Neu (3 h): 25.4%
- PT (3 h): 16.1 s
- Plat (3 h): 131.5 x10_4/uL
- RBC (3 h): 661.2 x10_4/ul
- Ret (3 h): 6%
- WBC (3 h): 39.6 x10_2/uL
- KIDNEY_L (3 h): 0.9 g
- KIDNEY_R (3 h): 1 g
- KIDNEY_TOTAL (3 h): 1.9 g
- LIVER (3 h): 9.3 g
- A/G (3 h): 1.2
- ALP (3 h): 1494.4 IU/L
- ALT (3 h): 47 IU/L
- AST (3 h): 56.8 IU/L
- BUN (3 h): 13.4 mg/dL
- CRE (3 h): 0.1 mg/dL
- Ca (3 h): 10.7 mg/dL
- Cl (3 h): 106.8 meq/L
- DBIL (3 h): 0.002 mg/dL
- GLC (3 h): 166.2 mg/dL
- IP (3 h): 10.5 mg/dL
- K (3 h): 4.1 meq/L
- LDH (3 h): 321.8 IU/L
- Na (3 h): 143.4 meq/L
- PL (3 h): 141 mg/dL
- RALB (3 h): 3.1 g/dL
- TBIL (3 h): 0.014 mg/dL
- TC (3 h): 85.4 mg/dL
- TG (3 h): 46.4 mg/dL
- TP (3 h): 5.9 g/dL
- gamma-GTP (3 h): 1 IU/L
- TERMINAL_BW (6 h): 208.7 g
- APTT (6 h): 23.1 s
- Bas (6 h): 0%
- Eos (6 h): 0.6%
- Fbg (6 h): 325.6 mg/dL
- Hb (6 h): 14.2 g/dL
- Ht (6 h): 40.9%
- Lym (6 h): 74.2%
- MCH (6 h): 20.9 pg
- MCHC (6 h): 34.8%
- MCV (6 h): 60.1 fL
- Mono (6 h): 1.6%
- Neu (6 h): 23.2%
- PT (6 h): 16.1 s
- Plat (6 h): 136 x10_4/uL
- RBC (6 h): 681 x10_4/ul
- Ret (6 h): 5.4%
- WBC (6 h): 35.9 x10_2/uL
- KIDNEY_L (6 h): 1 g
- KIDNEY_R (6 h): 1 g
- KIDNEY_TOTAL (6 h): 2 g
- LIVER (6 h): 9.1 g
- A/G (6 h): 1.2
- ALP (6 h): 1401.4 IU/L
- ALT (6 h): 39.2 IU/L
- AST (6 h): 54.2 IU/L
- BUN (6 h): 15.6 mg/dL
- CRE (6 h): 0.1 mg/dL
- Ca (6 h): 10.6 mg/dL
- Cl (6 h): 101.4 meq/L
- DBIL (6 h): 0.004 mg/dL
- GLC (6 h): 201 mg/dL
- IP (6 h): 10.2 mg/dL
- K (6 h): 4 meq/L
- LDH (6 h): 362.4 IU/L
- Na (6 h): 142 meq/L
- PL (6 h): 133 mg/dL
- RALB (6 h): 3.2 g/dL
- TBIL (6 h): 0.01 mg/dL
- TC (6 h): 80.8 mg/dL
- TG (6 h): 27.6 mg/dL
- TP (6 h): 6 g/dL
- gamma-GTP (6 h): 1.2 IU/L
- TERMINAL_BW (9 h): 202.6 g
- APTT (9 h): 24.1 s
- Bas (9 h): 0%
- Eos (9 h): 0.2%
- Fbg (9 h): 341.6 mg/dL
- Hb (9 h): 14.9 g/dL
- Ht (9 h): 42.6%
- Lym (9 h): 71%
- MCH (9 h): 21.5 pg
- MCHC (9 h): 35%
- MCV (9 h): 61.4 fL
- Mono (9 h): 3.2%
- Neu (9 h): 24.2%
- PT (9 h): 15.8 s
- Plat (9 h): 135.3 x10_4/uL
- RBC (9 h): 695 x10_4/ul
- Ret (9 h): 5.2%
- WBC (9 h): 40.1 x10_2/uL
- KIDNEY_L (9 h): 1 g
- KIDNEY_R (9 h): 1 g
- KIDNEY_TOTAL (9 h): 2 g
- LIVER (9 h): 8.8 g
- A/G (9 h): 1.2
- ALP (9 h): 1484.2 IU/L
- ALT (9 h): 34.4 IU/L
- AST (9 h): 49.6 IU/L
- BUN (9 h): 19.8 mg/dL
- CRE (9 h): 0.2 mg/dL
- Ca (9 h): 10.7 mg/dL
- Cl (9 h): 101.4 meq/L
- DBIL (9 h): 0 mg/dL
- GLC (9 h): 223.8 mg/dL
- IP (9 h): 9.1 mg/dL
- K (9 h): 3.6 meq/L
- LDH (9 h): 316.2 IU/L
- Na (9 h): 142 meq/L
- PL (9 h): 154.6 mg/dL
- RALB (9 h): 3.4 g/dL
- TBIL (9 h): 0.016 mg/dL
- TC (9 h): 86.8 mg/dL
- TG (9 h): 84.2 mg/dL
- TP (9 h): 6.2 g/dL
- gamma-GTP (9 h): 1.4 IU/L
- TERMINAL_BW (24 h): 206.5 g
- APTT (24 h): 24.1 s
- Bas (24 h): 0%
- Eos (24 h): 0.6%
- Fbg (24 h): 354.4 mg/dL
- Hb (24 h): 14.6 g/dL
- Ht (24 h): 42.3%
- Lym (24 h): 81.6%
- MCH (24 h): 21 pg
- MCHC (24 h): 34.6%
- MCV (24 h): 60.9 fL
- Mono (24 h): 2.6%
- Neu (24 h): 13.8%
- PT (24 h): 16.1 s
- Plat (24 h): 130.9 x10_4/uL
- RBC (24 h): 695 x10_4/ul
- Ret (24 h): 4%
- WBC (24 h): 90.8 x10_2/uL
- KIDNEY_L (24 h): 1 g
- KIDNEY_R (24 h): 1 g
- KIDNEY_TOTAL (24 h): 1.9 g
- LIVER (24 h): 8.1 g
- A/G (24 h): 1.2
- ALP (24 h): 1421.6 IU/L
- ALT (24 h): 35.4 IU/L
- AST (24 h): 61.4 IU/L
- BUN (24 h): 18.4 mg/dL
- CRE (24 h): 0.2 mg/dL
- Ca (24 h): 10.7 mg/dL
- Cl (24 h): 109.4 meq/L
- DBIL (24 h): 0.004 mg/dL
- GLC (24 h): 174 mg/dL
- IP (24 h): 7.9 mg/dL
- K (24 h): 4.2 meq/L
- LDH (24 h): 278.8 IU/L
- Na (24 h): 142.8 meq/L
- PL (24 h): 141.4 mg/dL
- RALB (24 h): 3.1 g/dL
- TBIL (24 h): 0.028 mg/dL
- TC (24 h): 91.4 mg/dL
- TG (24 h): 36.4 mg/dL
- TP (24 h): 5.8 g/dL
- gamma-GTP (24 h): 1.6 IU/L
